From patent publication US20050148495A1, “Methods and materials including for treating acne” (priority 2003, published 2005)
Non-standard residues stand in square brackets, D forms with d. Residues, ends and D or L forms follow the SMILES beside them. d1Nal = N[C@H](Cc1cccc2ccccc12)C(=O)O

How the values were obtained:
[1] = system: CHO cells; assay: CHO chromosomal aberration test; type: cell-based, Chinese Hamster; conditions: with and without metabolic activation
Description: XMP.629 was next evaluated for activity to induce chromosomal aberrations in cultured CHO cells with and without an exogenous metabolic activation system. […] The assay design for these chromosomal aberration studies was based on OECD Guideline 473, updated and adopted Jul. 21, 1997. XMP.629 was provided as a 20.0 mg/mL stock in 10 mM sodium acetate buffer (pH 6). This solution and its dilutions prepared in cell culture grade water were dosed at 10% vol/vol (100 pUL/mL). The vehicle control cultures were treated with 100 μL/mL of cell culture grade water. In the initial assay, the treatment period was for 3.0 hours with and without metabolic activation at various concentrations of XMP.629 (30, 60, 120, 240, 480, 686, 980, 1400 and 2000 μg/mL) and cultures were harvested 20.0 hours from the initiation of treatment. Those cultures that were treated with 30, 60 and 120 pg/mL were analyzed for chromosomal aberrations. No significant increase in cells with chromosomal aberrations, polyploidy or endoreduplication was observed. In a confirmatory assay that included lower doses, the treatment period was 20 hours without metabolic activation (3.75, 7.5,15, 30, 60, 90, 120, 160, 200 and 240 μg/mL) and 3 hours with metabolic activation (15, 30, 60, 90, 120, 160, 200, 240, 300 and 360 μg/mL). […]

[2] = system: guinea pigs, Crl:(HA)BR (Albino Hartley); assay: Guinea pig sensitization (maximization) test; type: in vivo
Description: A sensitization (maximization) study was performed to evaluate the potential of XMP.629 to elicit skin sensitization reactions, such as allergic contact dermatitis, in guinea pigs via intradermal injection and topical patch applications. Procedures for conducting dermal studies that determine the potential of substances to induce delayed contact hypersensitivity are well-known and are described, for example, in Magnusson, B. et al., Allergic Contact Dermatitis in the Guinea Pig, Charles C. Thomas Publishing, Springfield, Ill., 1970 and Klecak, G., “Test Methods for Allergic Contact Dermatitis in Animals”, Dermatoxicology, 5th Edition, Taylor & Francis Publishing, Washington D.C., pages 437-459, the disclosures of which are incorporated herein by reference. A total of forty two-month old guinea pigs, twenty male and twenty female, from the strain CrI:(HA)BR(Albino Hartley) were employed for the entire regimen of the sensitization study.
First, a preliminary range-finding test was conducted to determine the test concentration of XMP.629 to be used in the second test, induction phase intradermal injection and topical patch application tests. The range-finding test was performed (i) intradermally on two guinea pigs (one male and one female) by injecting concentrations of 2, 4, 8, 16, and 20 mg/mL XMP.629; and (ii) topically on three guinea pigs (two males and one female) by administering patches containing concentrations of 5, 10, 15, and 20 mg/mL XMP.629. […] Topical patches were prepared by spreading a thick even layer of 0.4 mL of XMP.629 over a 2×2 cm of Whatman No.3 filter paper. Topical patches were applied to the torso of the guinea pig and covered by an overlapping plastic adhesive tape followed by additional wrapping tape. After a 24 hour exposure period, the patches were removed and the application sites were washed to removed any excess XMP.629 that may be present. […] Intradermal injection sites and topical application sites were evaluated using a sensitization grade rating. […] Each site could attain a maximum possible score of 3, as scored according to the rating listed below: • 0=No reaction • 1=Scattered mild erythema • 2=Moderate and diffuse erythema • 3=Intense erythema and edema
The second induction phase test was conducted as a two-stage operation with intradermal injections initially being administered followed one week later by exposure to a closed patch. […] Following a period of 24 and 48 hours, evaluations of the injection area were recorded. […] Dermal irritation scores of one or higher were recorded for doses of 8 mg/mL of XMP.629.
A third, challenge (maximization) test was performed two weeks (day 22) after initiation of the second, induction phase tests. […] Patches were sealed to the flanks for approximately 24 hours before observations were recorded.

[3] = system: CD [Crl:CD (SD)IGS BR] rats; assay: Rat subchronic toxicity test, subcutaneous, 30 days; type: in vivo
Description: XMP.629 was evaluated for potential subchronic dose toxicity after at least 30 consecutive days of administration to CD®[CrI: CD® (SD)IGS BR] rats. This study consisted of four main study groups, each containing ten rats/sex/group, and four toxicokinetic (TK) groups each containing six rats/sex/group. Three of the four main study and TK groups received XMP.629 by bolus subcutaneous injection at dose levels of 0.3, 1.0, and 3.0 mg/kg/day and at a dose volume of 3.0 mL/kg. One main study and TK group each served as control groups and received a vehicle (saline/sodium acetate buffer, pH 6.0) at the same dose volume. The TK groups were used for the assessment of plasma XMP.629 concentrations and to evaluate potential effects from repeat-dose administration of XMP.629 on antibody formation in a standardized assay. Blood was collected for plasma analysis on Days 1 and 28. […]
All rats were observed twice daily for morbidity, mortality, injury, and availability of food and water. Body weights were measured pretest and weekly for all rats and observations for clinical signs and measurements for food consumption were conducted weekly during the course of the study on main study rats. […] At the end of the treatment period for the main study rats, various hematology, clinical chemistry, and urinalysis parameters were evaluated. […]

[4] = system: Enterococcus hirae; conditions: Enterococcus hirae 9790

CC(C)C[C@@H](NC(=O)[C@H](N)CCCCN)C(=O)N[C@H](Cc1ccccc1)C(=O)N[C@H](CCCNC(=N)N)C(=O)N[C@H](Cc1cccc2ccccc12)C(=O)N[C@H](CCC(N)=O)C(=O)N[C@H](C)C(=O)N[C@H](CCCCN)C(=O)N[C@H](Cc1cccc2ccccc12)C(N)=O [XMP.629, NH2-lys-leu-phe-arg-(3-(1-naphthyl)-ala)-gln-ala-lys-(3-(1-naphthyl)-ala)-CONH2] (H-[dK][dL][dF][dR][d1Nal][dQ][dA][dK][d1Nal]-NH2) was tested, and the “chromosomal aberrations in CHO cells” value [1] was “negative”, the “skin sensitization, overall” value ([2]; 10 mM sodium acetate solution, topical patch challenge) was “weak skin sensitizing response” and the Dermal irritation scores ([2]; doses of 8 mg/mL) was “one or higher”. For the same compound, the highest non-irritating dose ([2]; induction phase tests) was 4 mg/mL, the challenge phase score ([2]; topical patch 4 mg/mL) was “did not score higher than one” and the main finding ([3]; 0.3, 1.0, and 3.0 mg/kg/day subcutaneous for 30 days) was “injection site lesions”. The “no-observed-effect level (NOEL) for systemic effects” value ([3]; subcutaneous, 30 days) was “greater than 3.0 mg/kg/day” and the “Minimum Inhibitory Concentrations” value [4] was 2.00 µg/mL.
